Patent US20030198611A1, “Method of treating onychomycosis with urea and an antioxidant” (Bradley Pharmaceuticals, Inc., priority 2002, published 2003)

System: fungi
Assay: antifungal potency of urea compared with known antifungal agents
Settings: no method or data given

## NC(N)=O [urea]
  antifungal potency relative to known antifungal agents: equal potency to known antifungal agents
